Results taken from paper PMC6340882, “Targeting protein kinase CK2 and CDK4/6 pathways with a multi-kinase inhibitor ON108110 suppresses pro-survival signaling and growth in mantle cell lymphoma and T-acute lymphoblastic leukemia” (Oncotarget, 2018).

What was measured:
[1] = tested on: Granta-519 and CEM cells; assay: Cell cycle analysis, propidium iodide staining and flow cytometry; format: cell-based, human; conditions: 0.5-2.0μM, 24 hours
Protocol: Figure 5 Modulation of cell cycle expression and induction of apoptosis in ON 108110-treated MCL and T-ALL cell lines (A) CEM and Granta-519 cells were treated with either DMSO or increasing concentrations of ON108110 (0.5-2.0μM) for 24 hours. Cell cycle analysis was performed using propidium iodide staining. (B) CEM, HBL-2, RS4-11 and Granta-519 cells were treated with either DMSO (vehicle) or increasing concentrations of ON108110 (0.5-2.0 μM) for 24 hours and stained with Annexin V/DAPI (C) Graphical representation of apoptosis induced as shown in B. (D) Granta-519 cells were treated with increasing concentrations of ON108110 for 24 hours. Caspase activation and viability were measured using the Caspase Glo 3/7 and Cell Titer Blue assay kits, respectively. […]
To determine cell cycle distribution, 70% ethanol fixed cells were washed with phosphate buffered saline (PBS), resuspended in PBS and incubated with RNase and propidium iodide at 37°C for 20 min. DNA content was analyzed on a FACS Calibur (BD Immunocytometry Systems) and the data analyzed using Flowjo software (Treestar). Annexin V staining was measured using the FITC Annexin V Apoptosis Detection Kit I (BD Biosciences) according to the instructions of the manufacturer except that DAPI was substituted at a concentration of […] to measure DNA content.

[2] = target: T1, recombinant CK2α1 kinase domain (Homo sapiens, UniProt P68400); assay: Differential scanning fluorimetry (DSF); format: binding; conditions: apo protein Tm 58°C
T1 construct: Amino acid residues 3-335 of CK2α1 were cloned using BamH1 and HindIII into pET28bsmt3-SUMO fusion vector; His6 (N, cleaved yes); SUMO (N, cleaved yes); made in house; host or cells: Escherichia coli BL21-DE3 (RIL)
T1 sequence (P68400 3-335): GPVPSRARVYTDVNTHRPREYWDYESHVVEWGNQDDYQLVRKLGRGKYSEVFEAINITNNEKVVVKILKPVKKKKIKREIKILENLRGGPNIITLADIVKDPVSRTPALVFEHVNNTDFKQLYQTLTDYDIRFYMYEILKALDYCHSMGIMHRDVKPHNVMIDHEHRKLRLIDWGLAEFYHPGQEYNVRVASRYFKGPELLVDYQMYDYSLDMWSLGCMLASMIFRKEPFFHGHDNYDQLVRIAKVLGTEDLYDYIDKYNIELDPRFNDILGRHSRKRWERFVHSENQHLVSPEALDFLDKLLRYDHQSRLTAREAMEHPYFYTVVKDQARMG
Protocol: 1μM of in-house purified recombinant CK2α1 was diluted in protein buffer and added to a final concentration of 1X of Sypro Orange Dye in the presence of DMSO or increasing concentrations of ON108110. Following a 20 min incubation at room temperature, 20μl samples were pipetted into a clear MicroAmp Fast 96-well Reaction PCR plates and sealed with MicroAmp Optical Adhesive Film. The assay was performed using a StepOne Plus RT-PCR instrument (Applied Biosystems) using an increasing temperature gradient of 20 to 90°C in 0.2°C increments using a 200- millisecond stabilization delay. Florescence readings were acquired with excitation and emission wavelengths of 580±10 nm and 624±14 nm respectively. A customized analysis program (Step One Plus Protein Thermal Shift Software) was used to calculate the Tm from each fluorescence profile (Boltzmann method) and the Tm of the fluorescence (derivative method). Derivative Tm values were obtained from the top of the peak in the derivative plot, while the Boltzmann Tm values calculated from the inflection point of the fluorescence plot.

[3] = target: CDK4/CyclinD1 (Homo sapiens, UniProt P11802); assay: Kinase panel profiling (Reaction Biology Corp); format: biochemical; conditions: CDK4/CyclinD1, kinase inhibition profile
Chain of CDK4/CyclinD1 (P11802 whole entry): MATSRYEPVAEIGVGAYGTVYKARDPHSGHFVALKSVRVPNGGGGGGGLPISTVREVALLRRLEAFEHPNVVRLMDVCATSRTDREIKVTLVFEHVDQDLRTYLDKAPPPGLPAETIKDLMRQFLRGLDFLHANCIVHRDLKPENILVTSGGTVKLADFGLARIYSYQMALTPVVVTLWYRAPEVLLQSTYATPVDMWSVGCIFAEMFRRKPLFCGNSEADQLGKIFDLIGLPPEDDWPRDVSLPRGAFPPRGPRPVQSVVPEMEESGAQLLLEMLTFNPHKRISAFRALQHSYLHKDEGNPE
Chain of CDK4/CyclinD1 (P24385 whole entry partner): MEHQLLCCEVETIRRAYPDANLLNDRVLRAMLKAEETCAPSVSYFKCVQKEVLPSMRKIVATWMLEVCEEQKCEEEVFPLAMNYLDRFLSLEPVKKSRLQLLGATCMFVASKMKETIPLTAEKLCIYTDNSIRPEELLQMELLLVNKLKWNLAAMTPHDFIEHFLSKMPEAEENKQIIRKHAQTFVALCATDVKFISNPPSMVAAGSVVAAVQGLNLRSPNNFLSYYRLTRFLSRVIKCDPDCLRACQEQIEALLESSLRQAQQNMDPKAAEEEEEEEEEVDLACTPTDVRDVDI
Protocol: (§1) Initial testing of ON108110 against a panel of 285 functional kinases was performed by Reaction Biology Corp (Malvern, PA). Recombinant CDK4/CYCLIN D1 or CK2α1 were mixed with their respective synthetic peptide substrates (10ng) and incubated with DMSO or increasing concentrations of ON108110 in 20μl kinase buffer [50mM Tris-HCl (pH 7.5), 10mM MgCl2, 1mM EGTA, 2mM DTT and 0.01% NP-40] for 30 min. at room temperature. Kinase reactions were carried out for 20 min at 30°C in the presence of 5μl of substrate-ATP mixture (1μg RB, 20μM ATP, 20μCi γ-^32P-ATP). The reactions were incubated at 30°C for 20 minutes, terminated by addition of 0.5M O-phosphoric acid and 10μl of the reaction mixture was spotted on P-30 Filtermat membranes (Wallac #1450-523). The filtermat was air-dried, blocked with methanol for 2 minutes followed by three washes with 75mM phosphoric acid. The filtermat was then air-dried and analyzed using a phosphoimager. Densitometric values were plotted as a function of log drug concentration using Prism 4 GraphPad software and the IC50 values determined by plotting sigmoidal non-linear regression curves with variable slope (n=3).

[4] = target: PIM3 (Homo sapiens, UniProt Q86V86); assay: Kinase panel profiling (Reaction Biology Corp); format: biochemical; conditions: PIM3, kinase inhibition profile
Protocol: as §1

[5] = target: CDK6/CyclinD3 (Homo sapiens, UniProt Q00534); assay: Kinase panel profiling (Reaction Biology Corp); format: biochemical; conditions: CDK6/CyclinD3, kinase inhibition profile
Chain of CDK6/CyclinD3 (Q00534 whole entry): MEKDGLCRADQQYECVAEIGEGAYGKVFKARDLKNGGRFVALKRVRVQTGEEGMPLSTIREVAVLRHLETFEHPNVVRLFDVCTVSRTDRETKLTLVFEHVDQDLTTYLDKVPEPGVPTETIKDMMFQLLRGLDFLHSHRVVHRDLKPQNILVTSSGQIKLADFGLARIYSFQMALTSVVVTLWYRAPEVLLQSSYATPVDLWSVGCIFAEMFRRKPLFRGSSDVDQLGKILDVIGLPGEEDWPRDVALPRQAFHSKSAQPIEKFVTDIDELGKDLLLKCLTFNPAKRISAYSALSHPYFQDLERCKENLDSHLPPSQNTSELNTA
Chain of CDK6/CyclinD3 (P30281 whole entry partner): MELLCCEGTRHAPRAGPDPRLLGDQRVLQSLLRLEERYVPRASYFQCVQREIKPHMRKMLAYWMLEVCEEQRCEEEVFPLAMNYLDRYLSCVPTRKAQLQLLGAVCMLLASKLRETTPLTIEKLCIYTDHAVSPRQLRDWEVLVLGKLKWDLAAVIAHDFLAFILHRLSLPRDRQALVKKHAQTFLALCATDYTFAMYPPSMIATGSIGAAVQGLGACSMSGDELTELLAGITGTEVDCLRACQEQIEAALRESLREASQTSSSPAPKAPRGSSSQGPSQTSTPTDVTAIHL
Protocol: as §1

[6] = target: CDK6/CyclinD1 (Homo sapiens, UniProt Q00534); assay: Kinase panel profiling (Reaction Biology Corp); format: biochemical; conditions: CDK6/CyclinD1, kinase inhibition profile
Chain of CDK6/CyclinD1 (Q00534 whole entry): as the sequence (Q00534 whole entry) above
Chain of CDK6/CyclinD1 (P24385 whole entry partner): as the sequence (P24385 whole entry partner) above
Protocol: as §1

[7] = tested on: CDK4/6-specific RB phosphorylation in Granta-519 and CEM cells; assay: Western blot of phosphorylated RB (Ser780 and Ser 807/811); format: cell-based, human; conditions: increasing concentrations, 24 hours
Protocol: Figure 6 Inhibition of CK2/CDK4 mediated signaling by ON108110 (A) CEM and (B) Granta-519 cells were treated with increasing concentrations of ON 108110 for 24 hours. Whole cell extracts were subjected to western blot analysis using antibodies directed against the indicated proteins. GAPDH is shown as a loading control.
Cells were grown as indicated, lysed in lysis buffer (20mM Tris, pH 8.0/ 137mM NaCl/ 10% glycerol/ 1% NP-40) supplemented with 1X protease and phosphatase inhibitor cocktail on ice and resolved by SDS-PAGE. The proteins were transferred to a nitrocellulose membrane and subjected to Western blot analysis using the indicated antibodies. Proteins were visualized using an Odyssey imaging system (LI-COR Biosciences).

For `CC(=O)Oc1ccc(/C=C2\Sc3ccc(F)cc3NC2=O)cc1[N+](=O)[O-]` [ON108110], the “effect on cell cycle progression” value [1] was “rapid accumulation of the cells in the G1 phase”, the “melting temperature (Tm) of CK2α1 with compound” value [2] was 64.8 °C and the “shift in the Tm of CK2α1” value [2] was 6.8 °C. It also gave an IC50 [3] of 11 nM, an IC50 [4] of 2 nM and an IC50 [5] of 24 nM. For the same compound, the IC50 [6] was 2 nM and the “CDK4/6-specific RB phosphorylation (Ser780 and Ser 807/811)” value [7] was “concentration-dependent inhibition”.
